Reference: patent US11155561B2, “Substituted glutarimides as Btk inhibitors” (SHANGHAI MEIZER PHARMACEUTICALS CO., LTD., priority 2017, dated 2021)

Test system: DOHH2 cells (human B cell lymphoma cells)
Test: Inhibition of proliferation of DOHH2 cells by CTG assay
Format: cell-based
Details: DOHH-2, compound 10 μM, 72 hours
Method: (§1) Example 8 Testing the Inhibitory Effect of Formula Compounds on the Proliferation of DOHH2 Cells (Human B Cell Lymphoma Cells) and SU-DHL-6 (Human B Cell Lymphoma Cells) by CTG Assay
(§2) The […] was used to determine the inhibitory effect of the compounds on the proliferation of DOHH2 cells (available from ATCC) and SU-DHL-6 cells (available from ATCC) in vitro. Cells were cultured and compounds were prepared referring to Example 7. The cell plating density was 1×10^4 cells/well for DOHH2 cells, and 1.5×10^4 cells/well for SU-DHL-6 cells. The culture time after the administration was 72 hours. After that an appropriate amount of CTG reagent was added, the luminescence value was measured, and the inhibition rate was calculated.

SMILES | inhibition at 10 µM
Nc1ncnc2c1c(-c1ccc(Oc3ccccc3)cc1)nn2C1CCCN(CCOCCOCCOCCNc2cccc3c2C(=O)N(C2CCC(=O)NC2=O)C3=O)C1 (stereo not drawn) [Compound 15] | 99%

Target: T1, Btk (Homo sapiens, UniProt Q06187)
T1 sequence (Q06187 whole entry): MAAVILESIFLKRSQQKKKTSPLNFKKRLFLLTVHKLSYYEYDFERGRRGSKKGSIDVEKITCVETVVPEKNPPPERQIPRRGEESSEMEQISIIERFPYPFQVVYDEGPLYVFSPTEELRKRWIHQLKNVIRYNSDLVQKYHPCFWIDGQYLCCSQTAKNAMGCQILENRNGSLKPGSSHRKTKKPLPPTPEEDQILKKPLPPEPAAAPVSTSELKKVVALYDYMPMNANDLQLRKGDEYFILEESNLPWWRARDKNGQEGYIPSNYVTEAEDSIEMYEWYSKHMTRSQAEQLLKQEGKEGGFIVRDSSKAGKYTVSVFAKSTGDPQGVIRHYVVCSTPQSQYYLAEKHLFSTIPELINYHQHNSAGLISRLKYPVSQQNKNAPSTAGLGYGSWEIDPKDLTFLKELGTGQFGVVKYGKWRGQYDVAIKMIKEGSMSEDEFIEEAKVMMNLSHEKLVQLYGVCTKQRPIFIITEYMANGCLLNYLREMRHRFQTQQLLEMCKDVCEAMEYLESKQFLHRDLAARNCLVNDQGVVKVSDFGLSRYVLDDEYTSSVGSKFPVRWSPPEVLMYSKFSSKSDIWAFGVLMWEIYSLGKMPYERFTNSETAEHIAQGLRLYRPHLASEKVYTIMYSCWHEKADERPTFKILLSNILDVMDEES
Test: Inhibition activity of compounds on Btk by Caliper assay
Format: biochemical
Details: compound 100 nM, Btk kinase
Method: Example 5 Testing the Inhibition Activity of Compounds on Btk by Caliper Assay
The experimental steps were as follows:
Preparation of 1× kinase reaction buffer (50 mM HEPES, PH 7.5; 0.0015% Brij-35) and kinase reaction termination solution (100 mM HEPES, PH 7.5; 0.0015% Brij-35; 0.2% Coating Reagent; 50 mM EDTA);
Preparation of experimental samples: 100 μL of 5 μM sample solution (dissolved in 100% DMSO) was added to a 96-well plate to obtain a 50× sample solution. As a control, two wells were set containing only 100 μL of 100% DMSO on the same plate. One was served as a control without samples and the other was served as a control without enzymes. 10 μL of sample and 90 μL of 1× kinase reaction buffer were added to a 96-well plate as a transfer plate. The transfer plate was shaken for 10 minutes.
Preparation of the test plate: taking 5 μL each of the prepared samples in the 96-well transfer plate into a 384-well plate.
Kinase reaction: to 5 μL of 5× compound solution (dissolved in DMSO, diluted 10 times with water) was added 10 μL of 2.5× Btk kinase solution (kinase was diluted with 1× kinase reaction buffer), and incubated at room temperature for 10 min, then 10 μL of 2.5× substrate peptide solution (FAM-labeled peptide and ATP were diluted with 1× kinase reaction buffer) was added.
Termination of the kinase reaction: 25 μL of kinase termination solution was added after being reacted at 28° C. for a period of time.
The fluorescence (F) was tested on a Caliper and data was collected.
The inhibition rate of kinase activity was calculated: the percent inhibition rate of kinase activity=(FDMSO control−Fsample)/(FDMSO control−Fnegative control)×100, with DMSO as the solution control, and no kinase as the negative control.

SMILES | inhibition at 0.1 µM
Nc1ncnc2c1c(-c1ccc(Oc3ccccc3)cc1)nn2C1CCCN(CCOCCOCCOCCNc2cccc3c2C(=O)N(C2CCC(=O)NC2=O)C3=O)C1 (stereo not drawn) [Compound 15] | 98%

Test system: SU-DHL-6 (human B cell lymphoma cells)
Test: Inhibition of proliferation of SU-DHL-6 cells by CTG assay
Format: cell-based
Details: compound 10 μM, 72 hours
Method: as §1, §2

SMILES | inhibition at 10 µM
Nc1ncnc2c1c(-c1ccc(Oc3ccccc3)cc1)nn2C1CCCN(CCOCCOCCOCCNc2cccc3c2C(=O)N(C2CCC(=O)NC2=O)C3=O)C1 (stereo not drawn) [Compound 15] | 94%

Target: T1, Btk
Test: Btk protein degradation activity by Western blot in RPMI8226 cells
Format: cell-based
Design: degradation activity of the compound (10 μM) on Btk protein in RPMI8226 cells; endogenous in cells; host or cells: RPMI8226; key: “−” represents no degradation activity; “+” represents a degradation rate of 10%-30%; “++” represents a degradation rate of 30%-50%; “+++” represents a degradation rate of 50%-90%; “++++” means the degradation rate is greater than 90%
Details: compound 10 μM, 24 hours
Method: Example 6 Testing the Btk Protein Degradation Activity of Compounds by Western Blot
Cell lines: RPMI8226 Cell line was cultured in RPMI1640 medium containing 10% calf serum in a 37° C., 5% CO2, and saturated humidity incubator.
DMSO control group and compound intervention group (10 μM) were set. Cells was collected after the treatment for 24 hours, then 100 μL of pre-chilled cell lysate was added and cells were lysed on ice for 30 minutes. Total cell protein was extracted, and protein concentration was determined and quantified by […] (BCA) method. After routine gelatinization, loading, electrophoresis, then transferring to membrane and blocking, rabbit anti-human Btk (1:500) was added, and incubated at 4° C. overnight. The mixture was rinsed and then horseradish peroxidase labeled goat anti-rabbit IgG (1:5000) was added. After the rinsing it was developed by the ECL developing solution, the Bio-Rad gel imaging system was used for scanning and imaging, and the computer software was used for analysis. […] (GAPDH) was used as an internal control.
Image J software was used to analyze the gray scale of each band to calculate the Btk protein degradation rate of the compound.

SMILES | Degradation activity
Nc1ncnc2c1c(-c1ccc(Oc3ccccc3)cc1)nn2C1CCCN(C(=O)/C=C/CCOCCOCCOc2cccc3c2C(=O)N(C2CCC(=O)NC2=O)C3=O)C1 (stereo not drawn) [Compound 17] | +++ (“+++” represents a degradation rate of 50%-90%)
Nc1ncnc2c1c(-c1ccc(Oc3ccccc3)cc1)nn2C1CCCN(C(=O)/C=C/COCCOCCOCCOCCOc2cccc3c2C(=O)N(C2CCC(=O)NC2=O)C3=O)C1 (stereo not drawn) [Compound 21] | +++ (“+++” represents a degradation rate of 50%-90%)
Nc1ncnc2c1c(-c1ccc(Oc3ccccc3)cc1)nn2C1CCCN(C(=O)/C=C/CCCCOCCOCCOCCOc2cccc3c2C(=O)N(C2CCC(=O)NC2=O)C3=O)C1 (stereo not drawn) [Compound 20] | +++ (“+++” represents a degradation rate of 50%-90%)
C=C(CCOCCOCCOc1cccc2c1C(=O)N(C1CCC(=O)NC1=O)C2=O)C(=O)N1CCCC(n2nc(-c3ccc(Oc4ccccc4)cc3)c3c(N)ncnc32)C1 (stereo not drawn) [Compound 30] | ++++ (“++++” means the degradation rate is greater than 90%)
C=C(CCOCCOCCNc1cccc2c1C(=O)N(C1CCC(=O)NC1=O)C2=O)C(=O)N1CCCC(n2nc(-c3ccc(Oc4ccccc4)cc3)c3c(N)ncnc32)C1 (stereo not drawn) [Compound 34] | ++++ (“++++” means the degradation rate is greater than 90%)
Nc1ncnc2c1c(-c1ccc(Oc3ccccc3)cc1)nn2C1CCCN(C(=O)/C=C/CCOCCOCCNc2cccc3c2C(=O)N(C2CCC(=O)NC2=O)C3=O)C1 (stereo not drawn) [Compound 23] | ++++ (“++++” means the degradation rate is greater than 90%)
Nc1ncnc2c1c(-c1ccc(Oc3ccccc3)cc1)nn2C1CCCN(C(=O)/C=C/CCOCCOCCOCCOCCNc2cccc3c2C(=O)N(C2CCC(=O)NC2=O)C3=O)C1 (stereo not drawn) [Compound 28] | +++ (“+++” represents a degradation rate of 50%-90%)
Nc1ncnc2c1c(-c1ccc(Oc3ccccc3)cc1)nn2C1CCCN(C(=O)/C=C/CCOCCOCCOCCOCCOc2cccc3c2C(=O)N(C2CCC(=O)NC2=O)C3=O)C1 (stereo not drawn) [Compound 22] | +++ (“+++” represents a degradation rate of 50%-90%)
Nc1ncnc2c1c(-c1ccc(Oc3ccccc3)cc1)nn2C1CCCN(CCOCCOCCOCCNc2cccc3c2C(=O)N(C2CCC(=O)NC2=O)C3=O)C1 (stereo not drawn) [Compound 15] | ++++ (“++++” means the degradation rate is greater than 90%)
C=C(CCCOCCOCCOc1cccc2c1C(=O)N(C1CCC(=O)NC1=O)C2=O)C(=O)N1CCCC(n2nc(-c3ccc(Oc4ccccc4)cc3)c3c(N)ncnc32)C1 (stereo not drawn) [Compound 29] | ++++ (“++++” means the degradation rate is greater than 90%)
Nc1ncnc2c1c(-c1ccc(Oc3ccccc3)cc1)nn2C1CCCN(C(=O)c2cn(CCOCCOCCOc3cccc4c3C(=O)N(C3CCC(=O)NC3=O)C4=O)nn2)C1 (stereo not drawn) [Compound 37] | ++++ (“++++” means the degradation rate is greater than 90%)
Nc1ncnc2c1c(-c1ccc(Oc3ccccc3)cc1)nn2C1CCCN(C(=O)/C=C/CCOCCOCCOCCOc2cccc3c2C(=O)N(C2CCC(=O)NC2=O)C3=O)C1 (stereo not drawn) [Compound 18] | +++ (“+++” represents a degradation rate of 50%-90%)
Nc1ncnc2c1c(-c1ccc(Oc3ccccc3)cc1)nn2C1CCN(CCOCCOCCOCCOc2cccc3c2C(=O)N(C2CCC(=O)NC2=O)C3=O)CC1 (stereo not drawn) [control compound, reference compound] | −
Nc1ncnc2c1c(-c1ccc(Oc3ccccc3)cc1)nn2C1CCCN(C(=O)c2cn(CCOCCOCCOCCOCCOc3cccc4c3C(=O)N(C3CCC(=O)NC3=O)C4=O)nn2)C1 (stereo not drawn) [Compound 40] | +++ (“+++” represents a degradation rate of 50%-90%)
Nc1ncnc2c1c(-c1ccc(Oc3ccccc3)cc1)nn2C1CCCN(C(=O)/C=C/COCCOCCOCCOCCNc2cccc3c2C(=O)N(C2CCC(=O)NC2=O)C3=O)C1 (stereo not drawn) [Compound 27] | ++++ (“++++” means the degradation rate is greater than 90%)
C=C(CCOCCOCCOCCOc1cccc2c1C(=O)N(C1CCC(=O)NC1=O)C2=O)C(=O)N1CCCC(n2nc(-c3ccc(Oc4ccccc4)cc3)c3c(N)ncnc32)C1 (stereo not drawn) [Compound 31] | ++++ (“++++” means the degradation rate is greater than 90%)
Nc1ncnc2c1c(-c1ccc(Oc3ccccc3)cc1)nn2C1CCCN(C(=O)/C=C/CCCOCCOCCOCCOc2cccc3c2C(=O)N(C2CCC(=O)NC2=O)C3=O)C1 (stereo not drawn) [Compound 19] | +++ (“+++” represents a degradation rate of 50%-90%)
C=C(CCOCCOCCOCCNc1cccc2c1C(=O)N(C1CCC(=O)NC1=O)C2=O)C(=O)N1CCCC(n2nc(-c3ccc(Oc4ccccc4)cc3)c3c(N)ncnc32)C1 (stereo not drawn) [Compound 35] | ++++ (“++++” means the degradation rate is greater than 90%)
C=C(CCCOCCOCCNc1cccc2c1C(=O)N(C1CCC(=O)NC1=O)C2=O)C(=O)N1CCCC(n2nc(-c3ccc(Oc4ccccc4)cc3)c3c(N)ncnc32)C1 (stereo not drawn) [Compound 33] | ++++ (“++++” means the degradation rate is greater than 90%)
Nc1ncnc2c1c(-c1ccc(Oc3ccccc3)cc1)nn2C1CCCN(C(=O)c2cn(CCOCCOCCOCCOCCNc3cccc4c3C(=O)N(C3CCC(=O)NC3=O)C4=O)nn2)C1 (stereo not drawn) [Compound 44] | +++ (“+++” represents a degradation rate of 50%-90%)
C=C(CCOCCOCCOCCOCCOc1cccc2c1C(=O)N(C1CCC(=O)NC1=O)C2=O)C(=O)N1CCCC(n2nc(-c3ccc(Oc4ccccc4)cc3)c3c(N)ncnc32)C1 (stereo not drawn) [Compound 32] | +++ (“+++” represents a degradation rate of 50%-90%)
Nc1ncnc2c1c(-c1ccc(Oc3ccccc3)cc1)nn2C1CCCN(C(=O)c2cn(CCOCCOCCOCCNc3cccc4c3C(=O)N(C3CCC(=O)NC3=O)C4=O)nn2)C1 (stereo not drawn) [Compound 43] | ++++ (“++++” means the degradation rate is greater than 90%)
Nc1ncnc2c1c(-c1ccc(Oc3ccccc3)cc1)nn2C1CCCN(C(=O)/C=C/CCCCOCCOCCOCCNc2cccc3c2C(=O)N(C2CCC(=O)NC2=O)C3=O)C1 (stereo not drawn) [Compound 26] | ++++ (“++++” means the degradation rate is greater than 90%)
C=C(CCOCCOCCOCCOCCNc1cccc2c1C(=O)N(C1CCC(=O)NC1=O)C2=O)C(=O)N1CCCC(n2nc(-c3ccc(Oc4ccccc4)cc3)c3c(N)ncnc32)C1 (stereo not drawn) [Compound 36] | +++ (“+++” represents a degradation rate of 50%-90%)
Nc1ncnc2c1c(-c1ccc(Oc3ccccc3)cc1)nn2C1CCCN(C(=O)/C=C/CCOCCOCCOCCNc2cccc3c2C(=O)N(C2CCC(=O)NC2=O)C3=O)C1 (stereo not drawn) [Compound 24] | ++++ (“++++” means the degradation rate is greater than 90%)
Nc1ncnc2c1c(-c1ccc(Oc3ccccc3)cc1)nn2C1CCCN(C(=O)c2cn(CCOCCOCCOCCOc3cccc4c3C(=O)N(C3CCC(=O)NC3=O)C4=O)nn2)C1 (stereo not drawn) [Compound 39] | ++++ (“++++” means the degradation rate is greater than 90%)
Nc1ncnc2c1c(-c1ccc(Oc3ccccc3)cc1)nn2C1CCCN(C(=O)/C=C/CCCOCCOCCOCCNc2cccc3c2C(=O)N(C2CCC(=O)NC2=O)C3=O)C1 (stereo not drawn) [Compound 25] | ++++ (“++++” means the degradation rate is greater than 90%)
